From ChEMBL document CHEMBL1201862, “PubChem BioAssay data set” (2004) come the findings set out here.

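Cells were grown in 96-well plates and exposed to each compound for 48 hours at five concentrations; endpoints were interpolated linearly between bracketing concentrations, or set to the highest concentration if not reached. Abbreviation: GI50, concentration required for 50% inhibition of growth.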 Active and inactive are the calls of the source. Rule as the data show it: active = GI50 up to about 1.1 µM and inactive = higher.

Some test systems named below: NCI-H226; HT-29; SW-620; MDA-N; RXF 393; SK-MEL-2; HCT-15; OVCAR-5; HOP-92; EKVX; SN12C; SF-539; U-251; UO-31; SF-295; A549; NCI/ADR-RES; OVCAR-8; MDA-MB-231.
Assay in all cases: growth of human tumour cells (NCI), 48 h

`COc1cc2c(cc1OC)-c1cc3cc(OC)c(OC)cc3c(=O)n1CC2`: the GI50 in the experiment on NCI-H226 is 8.75 µM (inactive); in the experiment with HT-29 it was 28.6 µM (inactive); in the experiment on SW-620, 9.51 µM (inactive); in the experiment on MDA-N it was 67.9 µM (inactive); in the experiment on RXF 393 it was 17.3 µM (inactive); with SK-MEL-2 it was 11.5 µM (inactive). The GI50 in the experiment on HCT-15 is 38.5 µM; with OVCAR-5, > 62.2 µM (inactive); in the experiment on HOP-92, 2.34 µM (inactive); in the experiment with EKVX it was 28.8 µM (inactive); in the experiment with SN12C, 14.6 µM (inactive); in the experiment on SF-539, 6.12 µM (inactive). Besides, the GI50 in the experiment with U-251 was 17.3 µM (inactive); with UO-31, 2.43 µM (inactive); in the experiment on SF-295, 11.5 µM (inactive); in the experiment with A549, 41.2 µM (inactive); with NCI/ADR-RES, 21.7 µM (inactive); in the experiment with OVCAR-8, 41.9 µM (inactive). In the experiment with MDA-MB-231, the GI50 was 14.8 µM (inactive).

Turning to `CCOC1OC(CO)C(O)CC1n1ccc(=O)[nH]c1=O` (stereo not drawn), the GI50 in the experiment with NCI-H226, in the experiment with HT-29, in the experiment with SW-620, in the experiment on MDA-N, in the experiment on RXF 393 and in the experiment with SK-MEL-2 was > 100 µM (inactive) in each case. The GI50 in the experiment with HCT-15 was greater than 100 µM; in the experiment on OVCAR-5 it was > 100 µM (inactive); in the experiment with HOP-92 it was > 100 µM (inactive); with EKVX, > 100 µM (inactive); in the experiment with SN12C it was > 100 µM (inactive); in the experiment on SF-539, > 100 µM (inactive). The GI50 in the experiment on U-251, in the experiment on UO-31, with SF-295, in the experiment with A549, in the experiment on NCI/ADR-RES and in the experiment with OVCAR-8 was > 100 µM (inactive) throughout. For the same molecule, the GI50 in the experiment with MDA-MB-231 was > 100 µM (inactive).

For `Brc1ccc(C2CC3(c4ccccc4)ON=C(c4ccccc4)N3c3ccccc3S2)cc1` (stereo not drawn), the GI50 in the experiment with NCI-H226 was > 100 µM (inactive); in the experiment with HT-29, 9.16 µM (inactive); in the experiment with SW-620 it was > 100 µM (inactive); with MDA-N it was > 100 µM (inactive); in the experiment on RXF 393, > 100 µM (inactive); in the experiment on SK-MEL-2 it was > 100 µM (inactive). In addition, the GI50 in the experiment on HCT-15 was greater than 100 µM; in the experiment on OVCAR-5 it was > 100 µM (inactive); in the experiment with HOP-92 it was > 100 µM (inactive); in the experiment with EKVX it was > 100 µM (inactive); in the experiment with SN12C, > 100 µM (inactive); in the experiment with SF-539, > 100 µM (inactive). Besides, the GI50 in the experiment on U-251, in the experiment on UO-31, in the experiment on SF-295, with A549, with NCI/ADR-RES and with OVCAR-8 was > 100 µM (inactive) throughout. In addition, in the experiment on MDA-MB-231, the GI50 is > 100 µM (inactive).

As to `Cc1ccnc2nc3[nH]c4ccccc4c3cc12`, the GI50 in the experiment on NCI-H226, with HT-29, in the experiment with SW-620, in the experiment on MDA-N, in the experiment with RXF 393 and with SK-MEL-2 was > 100 µM (inactive) in each case. Moreover, the GI50 in the experiment with HCT-15 is greater than 100 µM; in the experiment with OVCAR-5, > 100 µM (inactive); in the experiment on HOP-92, > 100 µM (inactive); in the experiment on EKVX, > 100 µM (inactive); with SN12C, > 100 µM (inactive); with SF-539, > 100 µM (inactive). For the same molecule, the GI50 in the experiment on U-251 was 39.1 µM (inactive); in the experiment with UO-31 it was > 100 µM (inactive); in the experiment with SF-295 it was > 100 µM (inactive); in the experiment with A549 it was > 100 µM (inactive); in the experiment with NCI/ADR-RES, > 100 µM (inactive); with OVCAR-8, 66.8 µM (inactive). The GI50 in the experiment with MDA-MB-231 is > 100 µM (inactive).

In the case of `O=C(N/N=C1\C(=O)Nc2c(Cl)cc(Cl)cc21)C(=O)Nc1cccc(C(F)(F)F)c1`, the GI50 was > 100 µM (inactive) with NCI-H226; > 100 µM (inactive) in the experiment with HT-29; > 100 µM (inactive) with SW-620; 54 µM (inactive) in the experiment on MDA-N; > 100 µM (inactive) in the experiment on RXF 393; > 100 µM (inactive) in the experiment with SK-MEL-2. The GI50 was greater than 100 µM in the experiment with HCT-15; > 100 µM (inactive) with OVCAR-5; > 100 µM (inactive) with HOP-92; > 100 µM (inactive) in the experiment with EKVX; > 100 µM (inactive) in the experiment with SN12C; > 100 µM (inactive) in the experiment on SF-539. For the same molecule, the GI50 was 97.5 µM (inactive) in the experiment on U-251; > 100 µM (inactive) in the experiment with UO-31; > 100 µM (inactive) in the experiment on SF-295; > 100 µM (inactive) with A549; > 100 µM (inactive) with NCI/ADR-RES; > 100 µM (inactive) with OVCAR-8. In addition, the GI50 in the experiment with MDA-MB-231 is 94.4 µM (inactive).

Regarding `Cn1c(=O)n2n(c1=O)C1C(=CC2)C2C=CC1n1c(=O)n(C)c(=O)n12` (stereo not drawn), the GI50 with NCI-H226, with HT-29, with SW-620, in the experiment on MDA-N, in the experiment with RXF 393 and with SK-MEL-2 was > 100 µM (inactive) in each case. The GI50 was greater than 100 µM with HCT-15; > 100 µM (inactive) with OVCAR-5; > 100 µM (inactive) with HOP-92; > 100 µM (inactive) in the experiment with EKVX; > 100 µM (inactive) in the experiment on SN12C; > 100 µM (inactive) with SF-539. For the same molecule, the GI50 in the experiment with U-251, with UO-31, in the experiment on SF-295, with A549, with NCI/ADR-RES and in the experiment with OVCAR-8 was > 100 µM (inactive) each time. In addition, the GI50 in the experiment with MDA-MB-231 was > 100 µM (inactive).

`O=C1CC2(c3ccccc3)ON=C(c3ccccc3)N2c2ccccc2N1` (stereo not drawn): the GI50 is > 100 µM (inactive) in the experiment on NCI-H226; 38.3 µM (inactive) in the experiment on HT-29; 62.4 µM (inactive) in the experiment with SW-620; 32.7 µM (inactive) in the experiment on MDA-N; 87.1 µM (inactive) in the experiment with RXF 393; 50.2 µM (inactive) with SK-MEL-2. Besides, the GI50 was 53.8 µM in the experiment with HCT-15; > 100 µM (inactive) with OVCAR-5; 22.1 µM (inactive) in the experiment with HOP-92; 57.1 µM (inactive) in the experiment with EKVX; 52.7 µM (inactive) in the experiment with SN12C; > 100 µM (inactive) in the experiment on SF-539. Further, the GI50 was 80.9 µM (inactive) in the experiment with U-251; 32.4 µM (inactive) with UO-31; > 100 µM (inactive) in the experiment on SF-295; 35.1 µM (inactive) in the experiment with NCI/ADR-RES; 77.1 µM (inactive) in the experiment on OVCAR-8; 40.8 µM (inactive) with MDA-MB-231.

As for `CC/C(Cl)=N\OC(=O)Nc1ccc(F)cc1F`, the GI50 is 17.9 µM (inactive) in the experiment with NCI-H226; 21.3 µM (inactive) in the experiment with HT-29; 1.93 µM (inactive) in the experiment on SW-620; 5.87 µM (inactive) in the experiment with MDA-N; 12.8 µM (inactive) in the experiment with RXF 393; 17.4 µM (inactive) in the experiment on SK-MEL-2. Further, the GI50 with HCT-15 was 2.34 µM; in the experiment on OVCAR-5 it was 17.9 µM (inactive); in the experiment with HOP-92 it was 1.93 µM (inactive); in the experiment on EKVX, 8.55 µM (inactive); in the experiment with SN12C, 5.73 µM (inactive); in the experiment on SF-539, 7.01 µM (inactive). Moreover, the GI50 with U-251 is 22.4 µM (inactive); in the experiment with UO-31 it was 14.9 µM (inactive); with SF-295 it was 26.4 µM (inactive); in the experiment on A549 it was 19.9 µM (inactive); with NCI/ADR-RES it was 17.8 µM (inactive); with OVCAR-8 it was 19.8 µM (inactive). The GI50 in the experiment on MDA-MB-231 is 17.5 µM (inactive).

Regarding `COC(=O)/C(C#N)=C(\Nc1ccccc1)N1CCCC1`, the GI50 in the experiment with NCI-H226, in the experiment with HT-29, in the experiment on SW-620, with MDA-N, with RXF 393 and in the experiment with SK-MEL-2 was > 100 µM (inactive) throughout. Besides, the GI50 is greater than 100 µM in the experiment with HCT-15; > 100 µM (inactive) in the experiment on OVCAR-5; > 100 µM (inactive) in the experiment on HOP-92; > 100 µM (inactive) with EKVX; > 100 µM (inactive) in the experiment on SN12C; > 100 µM (inactive) in the experiment with SF-539. Moreover, the GI50 in the experiment on U-251, in the experiment with UO-31, with SF-295, in the experiment with A549, in the experiment with NCI/ADR-RES and in the experiment with OVCAR-8 was > 100 µM (inactive) in each case. The GI50 with MDA-MB-231 is > 100 µM (inactive).

For the molecule `O=C1C(Cl)C(c2cc3cc(Br)ccc3nc2Cl)N1c1ccc(F)c(Cl)c1` (stereo not drawn), the GI50 is 6.7 µM (inactive) in the experiment with NCI-H226; 10.7 µM (inactive) with HT-29; 5.98 µM (inactive) with SW-620; 7.03 µM (inactive) in the experiment with MDA-N; 5.4 µM (inactive) in the experiment on RXF 393; 8.83 µM (inactive) in the experiment on SK-MEL-2. Also, the GI50 was 6.44 µM with HCT-15; 12 µM (inactive) in the experiment with OVCAR-5; 1.31 µM (inactive) in the experiment on HOP-92; 1.42 µM (inactive) in the experiment on EKVX; 7.73 µM (inactive) with SN12C; 1.51 µM (inactive) in the experiment on SF-539. In addition, the GI50 was 2.77 µM (inactive) in the experiment with U-251; 0.118 µM (active) in the experiment with UO-31; 7.14 µM (inactive) in the experiment with SF-295; 12.6 µM (inactive) in the experiment on A549; 5.57 µM (inactive) in the experiment with NCI/ADR-RES; 6.14 µM (inactive) with OVCAR-8. In addition, in the experiment on MDA-MB-231, the GI50 is 8.09 µM (inactive).

For `C/C(=N\Nc1nc2ccccc2o1)c1cccc[n+]1[O-]`, the GI50 is 45.7 µM (inactive) in the experiment on NCI-H226; 5.13 µM (inactive) in the experiment with HT-29; 5.12 µM (inactive) with SW-620; 60.7 µM (inactive) with MDA-N; 24.6 µM (inactive) in the experiment on RXF 393; > 100 µM (inactive) in the experiment on SK-MEL-2. In addition, the GI50 in the experiment with HCT-15 is 4.88 µM; in the experiment with OVCAR-5 it was 11.4 µM (inactive); in the experiment with HOP-92 it was 2.53 µM (inactive); in the experiment with EKVX, 11 µM (inactive); in the experiment on SN12C, 18.6 µM (inactive); with SF-539, 23.4 µM (inactive). For the same molecule, the GI50 was 8.26 µM (inactive) in the experiment on U-251; 4.45 µM (inactive) with UO-31; 0.0877 µM (active) in the experiment on SF-295; 24.5 µM (inactive) with A549; 3.6 µM (inactive) with NCI/ADR-RES; 20 µM (inactive) in the experiment on OVCAR-8. The GI50 in the experiment with MDA-MB-231 is 60.3 µM (inactive).
